Biological target: T1, human V1a receptor (Homo sapiens, UniProt P37288)
T1 construct: expressed in transfected cells; host or cells: HEK293 cells, transiently transfected; membranes prepared
Experiment: V1a receptor binding study (3H-Vasopressin SPA, HEK293 membranes)
Details: membranes of HEK293 cells transiently transfected with human V1a receptor, Ki by Cheng-Prussoff equation, read-out: pKi hV1a (converted)
Protocol: The human V1a receptor was cloned by RT-PCR from total human liver RNA. The coding sequence was subcloned in an expression vector after sequencing to confirm the identity of the amplified sequence. […] Cell membranes were prepared from HEK293 cells transiently transfected with the expression vector and grown in 20 liter fermenters with the following protocol.
50 g of cells were resuspended in 30 ml freshly prepared ice cold Lysis buffer (50 mM HEPES, 1 mM EDTA, 10 mM MgCl2 adjusted to pH=7.4+complete cocktail of protease inhibitor (Roche Diagnostics)); homogenized with Polytron for 1 min; and sonicated on ice for 2×2 minutes at 80% intensity (Vibracell sonicator). The preparation was centrifuged 20 min at 500 g at 4° C., the pellet was discarded and the supernatant centrifuged 1 hour at 43,000 g at 4° C. (19,000 rpm). The pellet was resuspended in 12.5 ml Lysis buffer+12.5 ml Sucrose 20% and homogenized using a Polytron for 1-2 min. The protein concentration was determined by the Bradford method and aliquots were stored at −80° C. until use. For binding studies 60 mg Yttrium silicate SPA beads (Amersham) were mixed with an aliquot of membrane in binding buffer (50 mM Tris, 120 mM NaCl, 5 mM KCl, 2 mM CaCl2, 10 mM MgCl2) for 15 minutes with mixing. 50 ul of bead/membrane mixture was then added to each well of a 96 well plate, followed by 50 ul of 4 nM 3H-Vasopressin (American Radiolabeled Chemicals). For total binding measurement 100 ul of binding buffer were added to the respective wells, for non-specific binding 100 ul of 8.4 mM cold vasopressin and for compound testing 100 ul of a serial dilution of each compound in 2% DMSO. The plate was incubated 1 h at room temperature, centrifuged 1 min at 1000 g and counted on a Packard Top-Count. Non-specific binding counts were subtracted from each well and data was normalized to the maximum specific binding set at 100%. To calculate an IC 50 the curve was fitted using a non-linear regression model (XLfit), and the Ki was calculated using the Cheng-Prussoff equation.

T1 sequence (P37288 whole entry): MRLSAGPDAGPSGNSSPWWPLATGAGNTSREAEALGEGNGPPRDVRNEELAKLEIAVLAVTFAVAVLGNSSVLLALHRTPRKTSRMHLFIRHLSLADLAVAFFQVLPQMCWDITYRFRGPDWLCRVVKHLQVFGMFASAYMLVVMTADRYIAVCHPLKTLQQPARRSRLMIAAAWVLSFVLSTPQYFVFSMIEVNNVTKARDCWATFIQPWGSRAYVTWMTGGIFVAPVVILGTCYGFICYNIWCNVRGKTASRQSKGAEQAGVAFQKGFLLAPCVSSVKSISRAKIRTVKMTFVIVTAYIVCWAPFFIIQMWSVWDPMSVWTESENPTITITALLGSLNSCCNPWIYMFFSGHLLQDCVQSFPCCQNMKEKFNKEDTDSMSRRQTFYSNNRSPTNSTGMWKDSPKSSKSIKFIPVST

Ki | SMILES
63.1 nM | CC1=C(C(=O)N2CC[C@@]3(OC(=O)c4ccccc43)[C@@H](C)C2)Cc2ccccc21 (racemic) [Example 10, (1RS,3′SR)-3′-Methyl-1′-[(3-methyl-1H-inden-2-yl)carbonyl]-3H-spiro[2-benzofuran-1,4′-piperidin]-3-one]
25.1 nM | O=C(c1cc2ccccc2s1)N1CCC2(CC1)OCc1ccccc12 [Example 1, 1′-(1-Benzothien-2-ylcarbonyl)-3H-spiro[2-benzofuran-1,4′-piperidine]]
50.1 nM | COc1cccc2cc(C(=O)N3CCC4(CC3)OCc3ccccc34)sc12 [Example 2, 1′-[(7-Methoxy-1-benzothien-2-yl)carbonyl]-3H-spiro[2-benzofuran-1,4′-piperidine]]
200 nM | COc1ccc2c(c1)C1(CCN(C(=O)c3cc4cccnc4[nH]3)CC1)OC2=O [Example 14, 6-Methoxy-1′-(1H-pyrrolo[2,3-b]pyridin-2-ylcarbonyl)-3H-spiro[2-benzofuran-1,4′-piperidin]-3-one]

The remaining lines, values behind:

SMILES | Ki
COc1ccc2c(c1)CC(C(=O)N1CCC3(CC1)OCc1ccccc13)S2 (stereo not shown) [Example 4, 1′-[(5-Methoxy-2,3-dihydro-1-benzothien-2-yl)carbonyl]-3H-spiro[2-benzofuran-1,4′-piperidine]] | 63.1 nM
CCc1cc(Br)cc2cc(C(=O)N3CCC4(CC3)OCc3ccccc34)oc12 [Example 6, 1′-[(5-Bromo-7-ethyl-1-benzofuran-2-yl)carbonyl]-3H-spiro[2-benzofuran-1,4′-piperidine]] | 50.1 nM
O=C(c1nc2cc(Cl)ccc2[nH]1)N1CCC2(CC1)OCc1ccccc12 [Example 9, 1′-[(5-Chloro-1H-benzimidazol-2-yl)carbonyl]-3H-spiro[2-benzofuran-1,4′-piperidine]] | 31.6 nM

Reference: patent publication US7495008B2, “Spiro-piperidine derivatives” (Hoffmann-La Roche Inc., priority 2006, dated 2009)
